Assay results from BindingDB's records for doi:10.1021/jm400938g (State Key Laboratory of Bioreactor Engineering, 2013).

Key:
[1] = target: Dihydroorotate dehydrogenase (quinone), mitochondrial (Homo sapiens, UniProt Q02127); assay: Inhibition of N-terminal His10-tagged human DHODH (Met30 to Arg396) expressed in Escherichia coli BL21 (DE3) using dihydroorotate as substrate measured every 30 secs for 6 mins by DCIP dye-based assay
[2] = target: T1, Dihydroorotate dehydrogenase (quinone), mitochondrial (Plasmodium falciparum, UniProt Q54A96); assay: Inhibition of Plasmodium falciparum DHODH (Phe158 to Ser569) expressed in Escherichia coli BL21 using dihydroorotate as substrate measured every 30 secs for 6 mins by DCIP dye-based assay
T1 sequence (Q54A96 whole entry): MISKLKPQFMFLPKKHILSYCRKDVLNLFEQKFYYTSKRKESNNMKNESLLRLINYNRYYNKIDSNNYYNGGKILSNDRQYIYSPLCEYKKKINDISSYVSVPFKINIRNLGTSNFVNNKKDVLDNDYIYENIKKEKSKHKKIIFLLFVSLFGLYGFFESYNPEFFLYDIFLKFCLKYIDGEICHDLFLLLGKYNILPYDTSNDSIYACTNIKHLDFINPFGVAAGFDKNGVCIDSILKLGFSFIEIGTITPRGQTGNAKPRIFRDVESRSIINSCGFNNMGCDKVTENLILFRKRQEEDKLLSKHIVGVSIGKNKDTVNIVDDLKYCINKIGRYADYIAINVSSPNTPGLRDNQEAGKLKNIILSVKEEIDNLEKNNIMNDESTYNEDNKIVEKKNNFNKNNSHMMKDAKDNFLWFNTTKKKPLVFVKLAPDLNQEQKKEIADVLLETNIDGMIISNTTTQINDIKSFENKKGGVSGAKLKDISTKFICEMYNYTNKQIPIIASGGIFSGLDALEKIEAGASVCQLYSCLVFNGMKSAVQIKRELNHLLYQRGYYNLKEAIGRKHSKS

Chain of Dihydroorotate dehydrogenase (quinone), mitochondrial (Homo sapiens, UniProt Q02127) (Q02127 whole entry): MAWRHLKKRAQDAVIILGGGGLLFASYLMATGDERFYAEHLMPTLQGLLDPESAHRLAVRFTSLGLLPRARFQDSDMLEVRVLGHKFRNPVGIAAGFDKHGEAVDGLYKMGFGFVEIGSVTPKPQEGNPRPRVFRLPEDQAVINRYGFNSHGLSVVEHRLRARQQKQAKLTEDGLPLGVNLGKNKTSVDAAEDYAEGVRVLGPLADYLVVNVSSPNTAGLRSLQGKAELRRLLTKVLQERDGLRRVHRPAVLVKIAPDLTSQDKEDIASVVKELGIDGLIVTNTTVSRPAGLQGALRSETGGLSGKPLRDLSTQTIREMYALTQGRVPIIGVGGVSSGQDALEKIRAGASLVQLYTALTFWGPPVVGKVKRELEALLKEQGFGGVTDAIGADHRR

| Compound | IC50 [1] [µM] | IC50 [2] [µM] |
| --- | --- | --- |
| Cc1ccc(Nc2scc(O)c2C(=O)O)cc1C | > 50 | > 50 |
| O=C(NCC1CC1)c1c(O)csc1Nc1ccc2ccccc2c1 | > 50 | > 50 |
| Cc1ccc(Nc2scc(O)c2C(N)=O)cc1C | > 50 | > 50 |
| CCOC(=O)c1c(O)csc1Nc1ccccc1 | > 50 | > 50 |
| CCOC(=O)c1c(O)csc1Nc1cccc(C(F)(F)F)c1 | > 50 | > 50 |
| CCCNC(=O)c1c(O)csc1Nc1ccc2ccccc2c1 | > 50 | > 50 |
| CCOC(=O)c1c(O)csc1Nc1ccc(Br)cc1C | > 50 | > 50 |
| CCCCNC(=O)c1c(O)csc1Nc1ccc2ccccc2c1 | > 50 | > 50 |
